Each structure is given as a SMILES string.

The test system of the test is S. cerevisiae tim10-1 mutant growth, luminescence. Briefly: growth inhibitors of tim10-1 mutant yeast, dose response, luminescence, S. cerevisiae, uHTS hits (AID 493003).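 Further: yeast growth measured after about 22 hours at 25 °C.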
Turning to `CC(NC(=O)Nc1cccc([N+](=O)[O-])c1)(C(F)(F)F)C(F)(F)F`, the IC50 was 57.2 µM.
As for `CCc1nc(C)cn1S(=O)(=O)c1cc([N+](=O)[O-])ccc1Cl`, the half-inhibitory concentration (IC50) is 16.8 µM.
As to `COc1cc2c(cc1OC)CN(c1ccc([N+](=O)[O-])cc1Cl)CC2`, the IC50 was 27.6 µM.
With `CCCOc1ccccc1NC(=O)/C=C/C(N)=O`, the half-inhibitory concentration (IC50) is 5.67 µM.
For `O=S(=O)(/N=C(/Sc1ccccc1)c1ccccc1)c1ccccc1`, the IC50 was 25.7 µM.
Consider `NS(=O)(=O)c1ccc(NC(=S)Nc2ccc(Br)c(Cl)c2)cc1`, for which the IC50 was 31.8 µM.
As to `CC(=O)OC[C@]12CCC(C)=C[C@H]1O[C@@H]1[C@H](O)[C@@H](OC(C)=O)[C@@]2(C)[C@]12CO2`, the IC50 was 30.8 µM.
Consider `O=C(COC(=O)c1ccccc1C(=O)c1ccccc1)Nc1ccc(SC(F)F)cc1`, for which the 50% inhibitory concentration (IC50) is 72.9 µM.
The result for `N/C(=N\OC(=O)CCC1CCCC1)c1ccccc1` reads 16.7 µM; that for `O=C(Nc1cccc(C(F)(F)F)c1)c1cccnc1NCCc1ccccc1`, 46.6 µM; that for `Oc1c(Cl)cc(Cl)cc1CNc1ccc(Br)cn1`, 33.2 µM.
With `O=C(/C=C/c1ccccc1)CC(O)(c1ccccc1)C(F)(F)C(F)F` (stereo not given), the IC50 was 16.3 µM.
With `C=CCn1c(N)c(C(=O)Nc2cccc(C)c2)c2nc3ccccc3nc21`, the IC50 was 17 µM.
Turning to `NNc1nc(-c2ccccc2)c2cc(Br)ccc2n1`, the IC50 is 10.1 µM.
With `O=C(c1cc(COc2ccc(F)cc2Cl)on1)N1CCN(c2cnccn2)CC1`, the concentration for half-maximal inhibition (IC50) was 11.7 µM.
In the case of `Cc1nn(Cc2ccc(Cl)cc2)c(C)c1NC(=O)c1ccc([N+](=O)[O-])cc1` it was 34.2 µM.
As to `CSc1ccccc1NC(=O)C1CC(c2c(F)cccc2Cl)=NO1` (stereo not given), the IC50 is 25.9 µM.
In the case of `O=C(Nc1ccccc1)c1cccnc1NCCc1ccccc1`, the IC50 was 73.3 µM.
For the compound `C=Cc1ncc(OC)c2c1[nH]c1ccccc12`, the half-inhibitory concentration (IC50) was 25 µM.
The result for `COc1c(/C=C2\SC(=Nc3ccccc3Cl)NC2=O)cccc1[N+](=O)[O-]` reads 22.5 µM; that for `O=C(CS(=O)(=O)c1ccccc1)Nc1nc(-c2ccccc2)cs1`, 24.2 µM; that for `Cc1ccc(/C(N)=N/OC(=O)C(C)c2ccc([N+](=O)[O-])cc2)cc1` (stereo not given), 9.99 µM.
`CC1=C/C(=N\OS(=O)(=O)c2ccccc2)C(C)=CC1=O`: the half-maximal inhibitory concentration (IC50) was 0.3 µM.
The result for `O=C1CC(Sc2nnnn2-c2ccccc2)C(=O)N1c1cccc(Cl)c1` (stereo not given) reads 9.03 µM.
For the compound `CNc1nc(-c2ccccn2)nnc1-c1ccccc1`, the IC50 is 29.8 µM.
Turning to `CCOC(=O)c1c(CSc2ccc(C)cc2)n(C)c2cc(Br)c(O)c(CN(C)C)c12`, the IC50 was 15.9 µM.
The result for `CC(C)C(c1nnnn1C1CCCC1)N1CCCc2ccccc21` (stereo not given) reads 14.2 µM.
As to `Cn1c(/C=C/c2ccc([N+](=O)[O-])o2)nc2ccccc2c1=O`, the IC50 was 7.3 µM.
In the case of `O=S(=O)(Nc1ccc(N=Nc2ccccc2)cc1)c1ccccc1` it was 35.5 µM.
On to `Cc1noc(NS(=O)(=O)c2ccc(NC(=O)Nc3ccc(Cl)c(Cl)c3)cc2)c1C`, for which the IC50 is 43.1 µM.
As for `CN(/N=C/c1ccc([N+](=O)[O-])o1)c1ccccc1`, the IC50 was 32.7 µM.
In the case of `O=C(Nc1ccc2c(c1)OCO2)c1cccc2c1C(=O)N(Cc1cccnc1)C2` it was 41.2 µM; in that of `O=S(=O)(Nc1cccc2cccnc12)c1ccc(S(=O)(=O)N2CCCC2)cc1`, 41.2 µM; in that of `S=c1[nH]nc(Nc2ccc(Cl)cc2)s1`, 20.8 µM.
In the case of `O=C1c2cccc3cccc(c23)C(=O)N1CCN1CCN(CC(O)COc2ccc3ccccc3c2)CC1` (stereo not given), the IC50 is 19.3 µM.
Take `Oc1cc(-c2ccccc2)c2ccccc2c1`: the 50% inhibitory concentration (IC50) was 74.2 µM.
For `COC(=O)c1cc(NC(=S)Nc2cc(Cl)cc(Cl)c2)cc(C(=O)OC)c1`, the IC50 is 23 µM.
Take `Cc1ccc(NC(=O)c2ccc([N+](=O)[O-])o2)c(C)c1`: the IC50 was 15.7 µM.
Turning to `O=C(C1CCN(C2CC(=O)N(c3cccc(Cl)c3)C2=O)CC1)N1CCCC1` (stereo not given), the half-maximal inhibitory concentration (IC50) is 18.2 µM.
Regarding `FC(F)Sc1ccc(NC(=S)NC2CCCC2)cc1`, the IC50 is 20.8 µM.
